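Growth conditions: 96-well plates. Treatment: test compound, 48 hours, 5 concentrations. Analysis: linear interpolation between bracketing concentrations; unreached endpoints set to highest concentration. GI50 marks 50% less growth.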 Calls of active or inactive are those of the source. Rule as the data show it: active = GI50 up to about 1.1 µM and inactive = higher.

Among the test systems are KM12; HOP-62; HCT-15; A549; NCI/ADR-RES; IGROV-1; ACHN; CAKI-1; M14; NCI-H460; DU-145; EKVX; TK-10; MDA-MB-231; UO-31; COLO 205; RPMI-8226; HCT-116; SN12C; NCI-H522.
Assay in all cases: inhibition of tumour cell growth, NCI panel, 48 h

Take `O=[N+]([O-])c1ccccc1S(=O)(=O)c1cccc2c1NCCC2`: the GI50 in the test with KM12 was 96.4 µM (inactive); in the test on HOP-62, 72.6 µM (inactive); in the test with HCT-15, 35 µM; in the test on A549, 31.9 µM (inactive); with NCI/ADR-RES it was 29 µM (inactive); in the test on IGROV-1 it was 34.3 µM (inactive). For the same molecule, the GI50 with ACHN was 55.8 µM (inactive); with CAKI-1 it was 63.5 µM (inactive); in the test on M14, 82.8 µM (inactive); in the test on NCI-H460 it was 44.2 µM (inactive); in the test on DU-145 it was 60.5 µM (inactive); with EKVX, 99.3 µM (inactive). Also, the GI50 in the test with TK-10 is > 100 µM (inactive); in the test on MDA-MB-231, > 100 µM (inactive); with UO-31, 47.4 µM (inactive); in the test with COLO 205, 60.8 µM (inactive); in the test with RPMI-8226, > 100 µM (inactive); in the test with HCT-116, 42.7 µM (inactive). In addition, the GI50 in the test on SN12C was 86.7 µM (inactive).

Consider `Cc1ccc2oc3c(ccc(=O)n3C)c(=O)c2c1`, for which the GI50 in the test on KM12 was > 100 µM (inactive); with HOP-62, > 100 µM (inactive); in the test with HCT-15, over 100 µM; with A549, > 100 µM (inactive); with NCI/ADR-RES, > 100 µM (inactive); with IGROV-1 it was > 100 µM (inactive). The GI50 in the test with ACHN was > 100 µM (inactive); with CAKI-1, > 100 µM (inactive); in the test with M14, > 100 µM (inactive); with NCI-H460, > 100 µM (inactive); with DU-145, > 100 µM (inactive); in the test on EKVX, 89.7 µM (inactive). For the same molecule, the GI50 in the test with NCI-H522, in the test with TK-10, in the test with MDA-MB-231, in the test with UO-31, in the test with COLO 205 and in the test with HCT-116 was > 100 µM (inactive) throughout. In the test on SN12C, the GI50 was > 100 µM (inactive).

In the case of `CC(=O)OC1CC2(O)C(CCC3(C)C(c4ccc(=O)oc4)CCC32O)C2(C)C1=CC(O)C1OC12` (configuration not stated), the GI50 is 0.067 µM (active) with KM12; 0.05 µM (active) in the test with HOP-62; 0.053 µM in the test on HCT-15; 0.028 µM (active) in the test with A549; 0.0378 µM (active) in the test on NCI/ADR-RES; 0.0653 µM (active) in the test on IGROV-1. Besides, the GI50 in the test with CAKI-1 is 0.0324 µM (active); in the test on NCI-H460, 0.0279 µM (active); with EKVX, 0.042 µM (active); in the test on NCI-H522, 0.025 µM (active); in the test on UO-31, 0.0713 µM (active); in the test with COLO 205, 0.0726 µM (active). Further, the GI50 is 0.0675 µM (active) in the test on RPMI-8226, 0.0296 µM (active) in the test with HCT-116 and 0.0349 µM (active) in the test on SN12C.

`Oc1c(CNCCCN2CCCC2)cc(Cl)c2cccnc12`: the GI50 was 4.05 µM (inactive) in the test with KM12; 2.66 µM (inactive) in the test on HOP-62; 2.09 µM with HCT-15; 3.14 µM (inactive) in the test on A549; 1.48 µM (inactive) in the test on NCI/ADR-RES; 6.85 µM (inactive) in the test on IGROV-1. Moreover, the GI50 is 3.03 µM (inactive) with CAKI-1; 2.88 µM (inactive) with NCI-H460; 1.75 µM (inactive) with EKVX; 4.22 µM (inactive) in the test with NCI-H522; 3.76 µM (inactive) with UO-31; 3.79 µM (inactive) with COLO 205. Besides, the GI50 in the test on RPMI-8226 was 2.38 µM (inactive); in the test on HCT-116 it was 2.61 µM (inactive); in the test on SN12C it was 5.64 µM (inactive).

Turning to `OC1(c2ccccc2)CC2CCC(C1)N2CCc1ccccc1` (configuration not stated), the GI50 with KM12 is 57.9 µM (inactive); in the test with HOP-62, 45.4 µM (inactive); in the test on HCT-15 it was 89.9 µM; with A549, 49.8 µM (inactive); with NCI/ADR-RES, > 100 µM (inactive); in the test on IGROV-1 it was 86.3 µM (inactive). Moreover, the GI50 with ACHN is 34.7 µM (inactive); in the test on CAKI-1 it was 53.2 µM (inactive); in the test on M14, 35.6 µM (inactive); with NCI-H460 it was 58.9 µM (inactive); in the test on DU-145 it was 48.4 µM (inactive); with EKVX, 97.5 µM (inactive). Moreover, the GI50 is > 100 µM (inactive) with TK-10; 73.6 µM (inactive) in the test on MDA-MB-231; 28.1 µM (inactive) in the test with UO-31; 17.6 µM (inactive) in the test on COLO 205; 30.3 µM (inactive) with RPMI-8226; 40.3 µM (inactive) in the test on HCT-116. The GI50 in the test on SN12C was > 100 µM (inactive).

For the molecule `CC(C)(C)[Si](C)(C)OCC1OC(n2cnc3c(N)ncnc32)CC1OS(C)(=O)=O` (configuration not stated), the GI50 with KM12 was > 100 µM (inactive); in the test on HOP-62, 45.8 µM (inactive); in the test on HCT-15, over 100 µM; in the test with NCI/ADR-RES, > 100 µM (inactive); in the test with IGROV-1 it was > 100 µM (inactive); with CAKI-1, > 100 µM (inactive). Further, the GI50 is 21.7 µM (inactive) with M14; > 100 µM (inactive) in the test on NCI-H460; > 100 µM (inactive) in the test on DU-145; 42 µM (inactive) with TK-10; 22.1 µM (inactive) in the test on MDA-MB-231; 51.4 µM (inactive) in the test with UO-31. The GI50 was > 100 µM (inactive) in the test with COLO 205, > 100 µM (inactive) in the test with RPMI-8226, 72.1 µM (inactive) in the test with HCT-116 and > 100 µM (inactive) in the test on SN12C.

Consider `COC(=O)[C@@H]1C=C[C@H](NC(C)=O)C1`, for which the GI50 in the test on KM12 was > 100 µM (inactive); with HOP-62, > 100 µM (inactive); in the test on HCT-15 it was over 100 µM; with NCI/ADR-RES it was > 100 µM (inactive); in the test on IGROV-1 it was > 100 µM (inactive); with CAKI-1, > 100 µM (inactive). Further, the GI50 in the test with M14, in the test on NCI-H460, in the test on DU-145, in the test with TK-10, with MDA-MB-231 and in the test with UO-31 was > 100 µM (inactive) throughout. For the same molecule, the GI50 in the test on COLO 205, with RPMI-8226, with HCT-116 and in the test with SN12C was > 100 µM (inactive) each time.

Consider `CC1=C(C)[C@@]2(C)O[C@@]2(C)O[C@@]2(C)O[C@@]12C`, for which the GI50 was > 100 µM (inactive) with KM12; > 100 µM (inactive) with HOP-62; over 100 µM with HCT-15; > 100 µM (inactive) in the test on A549; > 100 µM (inactive) in the test on NCI/ADR-RES; > 100 µM (inactive) in the test with ACHN. Further, the GI50 with CAKI-1, in the test with M14, with DU-145, in the test with EKVX, in the test on NCI-H522 and with TK-10 was > 100 µM (inactive) each time. For the same molecule, the GI50 with MDA-MB-231, with UO-31, in the test on COLO 205, in the test with HCT-116 and with SN12C was > 100 µM (inactive) in each case.

As for `Cc1cc(S(=O)(=O)Nc2nc(Nc3ccccc3)n[nH]2)c(SSc2cc(Cl)c(C)cc2S(=O)(=O)Nc2nc(Nc3ccccc3)n[nH]2)cc1Cl`, the GI50 with KM12 was > 100 µM (inactive); with HOP-62 it was > 100 µM (inactive); in the test with HCT-15, over 100 µM; in the test on A549, > 100 µM (inactive); in the test on NCI/ADR-RES, > 100 µM (inactive); with IGROV-1 it was > 100 µM (inactive). For the same molecule, the GI50 is > 100 µM (inactive) in the test on ACHN; 90.4 µM (inactive) with CAKI-1; > 100 µM (inactive) with M14; > 100 µM (inactive) in the test with NCI-H460; > 100 µM (inactive) in the test with DU-145; > 100 µM (inactive) in the test on EKVX. Also, the GI50 in the test with TK-10 is 90.8 µM (inactive); in the test with MDA-MB-231, 32.2 µM (inactive); with UO-31 it was > 100 µM (inactive); in the test on COLO 205, > 100 µM (inactive); in the test with RPMI-8226 it was > 100 µM (inactive); in the test with HCT-116 it was > 100 µM (inactive). Further, in the test on SN12C, the GI50 was > 100 µM (inactive).

Regarding `COC(=S)OC1CC(n2cnc3c(N)ncnc32)OC1CO[Si](C)(C)C(C)(C)C` (configuration not stated), the GI50 was 23.7 µM (inactive) in the test on KM12; 16 µM (inactive) in the test with HOP-62; 16.8 µM in the test on HCT-15; 22.4 µM (inactive) with NCI/ADR-RES; 17.6 µM (inactive) in the test on IGROV-1; > 10 µM (inactive) in the test with CAKI-1. Moreover, the GI50 in the test with M14 was 16.4 µM (inactive); in the test with NCI-H460, 20.3 µM (inactive); with DU-145, 16.8 µM (inactive); with TK-10 it was 33.3 µM (inactive); in the test on MDA-MB-231, 18.8 µM (inactive); in the test on UO-31, 16.6 µM (inactive). Further, the GI50 with COLO 205 is 17.7 µM (inactive); in the test on RPMI-8226, 19 µM (inactive); with HCT-116 it was 16 µM (inactive); in the test on SN12C, 20.4 µM (inactive).

For the molecule `O=c1cc(-c2cc(O)c(O)c(-c3c(O)cc4oc(-c5ccc(O)c(O)c5)cc(=O)c4c3O)c2)oc2cc(O)cc(O)c12`, the GI50 is > 25 µM (inactive) with HOP-62; over 25 µM in the test with HCT-15; > 25 µM (inactive) with A549; > 25 µM (inactive) in the test with NCI/ADR-RES; > 25 µM (inactive) in the test on IGROV-1; > 25 µM (inactive) with CAKI-1. Further, the GI50 with M14, in the test on NCI-H460, in the test with DU-145, in the test on EKVX, in the test with TK-10 and in the test on MDA-MB-231 was > 25 µM (inactive) each time. Besides, the GI50 with UO-31 was > 25 µM (inactive); in the test on COLO 205, > 25 µM (inactive); in the test with HCT-116, 17.5 µM (inactive); in the test with SN12C, > 25 µM (inactive).

Regarding `C=CCc1cccc(/C=N\N/C(N)=N/O)c1O`, the GI50 is 4.36 µM (inactive) in the test with KM12; 2.28 µM (inactive) in the test with HOP-62; 2.19 µM with HCT-15; 3.61 µM (inactive) with A549; 2.23 µM (inactive) with NCI/ADR-RES; 4.59 µM (inactive) with IGROV-1. Further, the GI50 in the test on CAKI-1 was 3.46 µM (inactive); in the test on NCI-H460 it was 3.2 µM (inactive); in the test on EKVX it was 3.06 µM (inactive); with NCI-H522, 3.23 µM (inactive); with UO-31, 1.45 µM (inactive); in the test with COLO 205 it was 5.01 µM (inactive). Besides, the GI50 in the test on RPMI-8226 was 2.22 µM (inactive); in the test with HCT-116, 5.33 µM (inactive); with SN12C, 4.8 µM (inactive).

Values taken from ChEMBL document CHEMBL1201862, “PubChem BioAssay data set” (2004).
